Laboratory results reported in patent US9409952B2, “Peptide-compound cyclization method” (Chugai Seiyaku Kabushiki Kaisha, priority 2011, dated 2016).
Where two headings read alike, the source gives them in different places. Starred links: 1 amine or outer side, 2 acyl side, 3 side chain; linkers in the order of their positions; H or OH if unused. Positions of bridges follow the written chain, without caps; N, C: chain ends. Non-standard residues stand in square brackets, D forms with d. Residues, ends and D or L forms follow the SMILES beside them. *: point of attachment. Phe(4-(CH2)5CO) = O=C([C@H](Cc1ccc(CCCCCC(=O)[*:3])cc1)N[*:1])[*:2]; Phe(3-(CH2)4CO) = O=C([C@H](Cc1cccc(CCCCC(=O)[*:3])c1)N[*:1])[*:2]; NEtPhe = CCN[C@@H](Cc1ccccc1)C(=O)O; NMeF = CN[C@@H](Cc1ccccc1)C(=O)O; NMeI = CC[C@H](C)[C@H](NC)C(=O)O; NMeL = CN[C@@H](CC(C)C)C(=O)O; NMeV = CN[C@H](C(=O)O)C(C)C; NMeA = CN[C@@H](C)C(=O)O; Piperidide = C1CCN(*)CC1; dNMeA = CN[C@H](C)C(=O)O; Aze = O=C(O)[C@@H]1CCN1; Sar = CNCC(=O)O; tBu = CC(C)(C)*

Experiment: Metabolic stability in human hepatic microsome
Assay type: in vitro ADME
[1] = microsomes, pH 7.4, human hepatic microsome, NADPH(+), read-out: CL NADPH(+)
[2] = human, microsomes, pH 7.4, CL NADPH(+)

Structure (SMILES)	microsomal CLint at 1 uM [1] [µL/min/mg]	other results
CC(C)C[C@H]1C(=O)N[C@@H](COC(C)(C)C)C(=O)N[C@H](C(=O)N2CCCCC2)CCC(=O)N[C@@H](C)C(=O)N(C)[C@@H](C)C(=O)N(C)[C@@H](Cc2ccccc2)C(=O)N(C)[C@@H](CC(C)C)C(=O)N[C@@H]([C@@H](C)O)C(=O)N(C)CC(=O)N1C [Compound P-121, Ala-MeAla-MePhe-MeLeu-Thr-MeGly-MeLeu-Ser(tBu)-Glu-piperidine] (A[NMeA][NMeF][NMeL]T[Sar][NMeL]S(tBu)E-Piperidide; lactam N-9)		Hepatic microsome CLhint (Human) In the absence of NADPH: 8 ul/min/mg Protein; Hepatic microsome CLhint (Human) In the presence of NADPH: 69 ul/min/mg Protein; microsomal CLint at 1 uM (human, liver microsomes, pH 7.4, Hepatic microsome CLhint (Human) In the presence of NADPH): 29 µL/min/mg
CCN1C(=O)[C@H](CC(C)C)N(C)C(=O)[C@H](CC(C)C)NC(=O)[C@@H](C)N(C)C(=O)C[C@@H](C(=O)N2CCCCC2)NC(=O)[C@H](CC(C)C)N(C)C(=O)CN(C)C(=O)[C@H]([C@@H](C)O)NC(=O)[C@H](CC(C)C)N(C)C(=O)[C@H](Cc2ccccc2)N(C)C(=O)[C@H](C)NC(=O)[C@@H]1Cc1ccccc1 [DP-636] ([dNMeA]L[NMeL][NEtPhe]A[NMeF][NMeL]T[Sar][NMeL]D-Piperidide; lactam N-11)	73	
CC(C)C[C@H]1C(=O)N(C)[C@@H](CC(C)C)C(=O)N[C@@H](C)C(=O)N(C)[C@@H](CC(C)C)C(=O)N(C)[C@@H](Cc2ccccc2)C(=O)N(C)[C@@H](Cc2ccccc2)C(=O)N[C@@H]([C@@H](C)O)C(=O)N(C)[C@@H](C)C(=O)N(C)[C@@H](CC(C)C)C(=O)N[C@H](C(=O)N2CCCCC2)Cc2cccc(c2)CCCCC(=O)N1C [DP-859] ([NMeL][NMeL]A[NMeL][NMeF][NMeF]T[NMeA][NMeL][Phe(3-(CH2)4CO)]-Piperidide; lactam N-10)	87	
C=C1CCC(=O)N(C)[C@@H](Cc2ccccc2)C(=O)N(C)CC(=O)N(C)[C@@H](CC(C)C)C(=O)N[C@@H]([C@@H](C)O)C(=O)N(C)[C@@H](C)C(=O)N(C)[C@@H](CC(C)C)C(=O)N(C)[C@@H]([C@@H](C)CC)C(=O)N[C@@H](COC(C)(C)C)C(=O)N[C@H](C(=O)N2CCCCC2)Cc2ccc1cc2 [DP-830]	321	
CC[C@H](C)[C@H]1C(=O)N[C@H](C(=O)N2CCCCC2)CC(=O)N[C@@H](C)C(=O)N[C@@H]([C@@H](C)O)C(=O)N(C)[C@@H](Cc2ccccc2)C(=O)N[C@@H](CC(C)C)C(=O)N2CCC[C@H]2C(=O)N[C@@H](C(C)C)C(=O)N[C@@H](Cc2ccccc2)C(=O)N(C)CC(=O)N[C@@H](CC(C)C)C(=O)N[C@@H](C)C(=O)N1C [DP-24] (AT[NMeF]LPVF[Sar]LA[NMeI]D-Piperidide; lactam N-12)	52	
CC(C)C[C@@H]1NC(=O)[C@H](CC(C)C)N(C)C(=O)[C@H](C)N(C)C(=O)[C@H](Cc2ccccc2)NC(=O)C[C@@H](C(=O)N2CCCCC2)NC(=O)[C@H]([C@@H](C)O)NC(=O)[C@H](C(C)C)N(C)C(=O)CN(C)C(=O)[C@H](CC(C)C)N(C)C(=O)[C@@H](C(C)C)NC(=O)[C@H](Cc2ccccc2)N(C)C1=O [DP-616] (F[NMeA][NMeL]L[NMeF][dV][NMeL][Sar][NMeV]TD-Piperidide; lactam N-11)	69	
CC[C@H](C)[C@@H]1NC(=O)[C@H](Cc2ccccc2)N(C)C(=O)[C@H](CC(C)C)N(C)C(=O)[C@H](CC(C)C)NC(=O)[C@H](C)NC(=O)[C@H](C(C)C)N(C)C(=O)CNC(=O)CCCCCc2ccc(cc2)C[C@@H](C(=O)N2CCCCC2)NC(=O)[C@H](CC(C)C)N(C)C(=O)[C@H]([C@@H](C)O)NC(=O)[C@@H]2CCCN2C(=O)[C@H](Cc2ccccc2)NC1=O [DP-902] (G[NMeV]AL[NMeL][NMeF]IFPT[NMeL][Phe(4-(CH2)5CO)]-Piperidide; lactam N-12)	121	
C=C1CCC(=O)N[C@@H](CC(C)C)C(=O)N[C@@H](C(C)C)C(=O)N(C)[C@@H](CC(C)C)C(=O)N[C@@H](Cc2ccccc2)C(=O)N(C)[C@@H](Cc2ccccc2)C(=O)N[C@@H]([C@@H](C)CC)C(=O)N(C)[C@@H](C)C(=O)N[C@@H](CC(C)C)C(=O)N[C@@H]([C@@H](C)O)C(=O)N[C@H](C(=O)N2CCCCC2)Cc2cccc1c2 [DP-890]	47	
C=C1CCC(=O)N(C)[C@@H](Cc2ccccc2)C(=O)N(C)[C@@H](CC(C)C)C(=O)N[C@@H]([C@@H](C)CC)C(=O)N(C)[C@@H](C)C(=O)N(C)[C@@H](Cc2ccccc2)C(=O)N[C@@H]([C@@H](C)O)C(=O)N(C)[C@@H](C)C(=O)N(C)[C@@H](CC(C)C)C(=O)N[C@H](C(=O)N2CCCCC2)Cc2ccc1cc2 [DP-833]	427	
CC[C@H](C)[C@@H]1NC(=O)[C@H](C)N(C)C(=O)CCCCc2cccc(c2)C[C@@H](C(=O)N2CCCCC2)NC(=O)[C@H](CC(C)C)N(C)C(=O)[C@H](C)N(C)C(=O)[C@H]([C@@H](C)O)NC(=O)[C@H](Cc2ccccc2)N(C)C(=O)[C@H](Cc2ccccc2)N(C)C(=O)[C@H](CC(C)C)N(C)C1=O [DP-849] ([NMeA]I[NMeL][NMeF][NMeF]T[NMeA][NMeL][Phe(3-(CH2)4CO)]-Piperidide; lactam N-9)	202	
C=C1CCC(=O)N[C@@H](CC(C)C)C(=O)N2CCC[C@H]2C(=O)N[C@@H]([C@@H](C)O)C(=O)N(C)CC(=O)N[C@@H](Cc2ccccc2)C(=O)N(C)[C@@H](C(C)C)C(=O)N(C)[C@@H](C)C(=O)N[C@@H](CC(C)C)C(=O)N(C)[C@@H](CC(C)C)C(=O)N[C@H](C(=O)N2CCCCC2)Cc2cccc1c2 [DP-866]	211	
CC[C@H](C)[C@@H]1NC(=O)[C@H](Cc2ccccc2)N(C)C(=O)[C@H](Cc2ccccc2)N(C)C(=O)[C@H](CC(C)C)N(C)C(=O)[C@H](CC(C)C)NC(=O)[C@H](CC(C)C)N(C)C(=O)[C@H](C)N(C)C(=O)[C@H]([C@@H](C)O)NC(=O)[C@H](C)NC(=O)C[C@@H](C(=O)N2CCCCC2)NC(=O)[C@H](C(C)C)N(C)C(=O)[C@@H]2CCCN2C1=O [DP-12] (AT[NMeA][NMeL]L[NMeL][NMeF][NMeF]IP[NMeV]D-Piperidide; lactam N-12)		microsomal CLint at 1 uM [2]: 32 µL/min/mg
CCN1C(=O)[C@H](Cc2ccccc2)N(C)C(=O)CN(C)C(=O)[C@H]([C@@H](C)O)NC(=O)[C@H](C)N(C)C(=O)C[C@@H](C(=O)N2CCCCC2)NC(=O)[C@H](C(C)C)N(C)C(=O)[C@H](C)NC(=O)[C@H](CC(C)C)N(C)C(=O)[C@@H]2CCCN2C(=O)[C@H](CC(C)C)N(C)C(=O)[C@@H]1Cc1ccccc1 [DP-632] ([NMeA]T[Sar][NMeF][NEtPhe][NMeL]P[NMeL]A[NMeV]D-Piperidide; lactam N-11)		microsomal CLint at 1 uM [2]: 41 µL/min/mg
C=C1CCC(=O)N(C)[C@@H](Cc2ccccc2)C(=O)N(C)[C@@H](CC(C)C)C(=O)N[C@@H]([C@@H](C)O)C(=O)N(C)[C@@H](C)C(=O)NCC(=O)N(C)[C@@H](CC(C)C)C(=O)N(C)[C@@H](CC(C)C)C(=O)N(C)[C@@H](CC(C)C)C(=O)N[C@H](C(=O)N2CCCCC2)Cc2ccc1cc2 [DP-845]	248	
CC[C@H](C)[C@H]1C(=O)N[C@@H]([C@@H](C)O)C(=O)N(C)CC(=O)N(C)[C@@H](CC(C)C)C(=O)N[C@H](C(=O)N2CCCCC2)CC(=O)N(C)[C@H](C)C(=O)N[C@@H](CC(C)C)C(=O)N(C)[C@@H](CC(C)C)C(=O)N(CC)[C@@H](Cc2ccccc2)C(=O)N[C@@H](C)C(=O)N(C)[C@@H](Cc2ccccc2)C(=O)N1C [DP-633] ([dNMeA]L[NMeL][NEtPhe]A[NMeF][NMeI]T[Sar][NMeL]D-Piperidide; lactam N-11)	98	
C=C1CCC(=O)N[C@@H](CC(C)C)C(=O)N2CCC[C@H]2C(=O)N(C)[C@@H](C(C)C)C(=O)N[C@@H](Cc2ccccc2)C(=O)N(C)[C@@H](Cc2ccccc2)C(=O)N(C)[C@@H](CC(C)C)C(=O)N[C@@H](C)C(=O)N(C)[C@@H]([C@@H](C)CC)C(=O)N[C@H](C(=O)N2CCCCC2)Cc2cccc1c2 [DP-870]	474	
CC[C@H](C)[C@@H]1NC(=O)[C@H](C(C)C)N(C)C(=O)[C@H](Cc2ccccc2)N(C)C(=O)[C@H](Cc2ccccc2)NC(=O)[C@H](CC(C)C)N(C)C(=O)[C@H](C)N(C)C(=O)[C@H]([C@@H](C)O)NC(=O)[C@H](C)N(C)C(=O)C[C@@H](C(=O)N2CCCCC2)NC(=O)[C@H](CC(C)C)N(C)C1=O [DP-333] ([NMeA]T[NMeA][NMeL]F[NMeF][NMeV]I[NMeL]D-Piperidide; lactam N-10)	157	
CC[C@H](C)[C@H]1C(=O)N2CCC[C@H]2C(=O)N(C)CC(=O)N[C@@H]([C@@H](C)O)C(=O)N[C@H](C(=O)N2CCCCC2)CC(=O)N[C@@H](C)C(=O)N[C@@H](C(C)C)C(=O)N(C)[C@@H](CC(C)C)C(=O)N(C)[C@@H](CC(C)C)C(=O)N(C)[C@@H](Cc2ccccc2)C(=O)N[C@@H](Cc2ccccc2)C(=O)N1C [DP-15] (AV[NMeL][NMeL][NMeF]F[NMeI]P[Sar]TD-Piperidide; lactam N-11)		microsomal CLint at 1 uM [2]: 34 µL/min/mg
CC[C@H](C)[C@H]1C(=O)N[C@@H](COC(C)(C)C)C(=O)N[C@H](C(=O)N2CCCCC2)Cc2ccc(cc2)CCCCCC(=O)N(C)[C@@H](Cc2ccccc2)C(=O)N(C)CC(=O)N(C)[C@@H](CC(C)C)C(=O)N[C@@H]([C@@H](C)O)C(=O)N(C)[C@@H](C)C(=O)N(C)[C@@H](CC(C)C)C(=O)N1C [DP-832] ([NMeF][Sar][NMeL]T[NMeA][NMeL][NMeI]S(tBu)[Phe(4-(CH2)5CO)]-Piperidide; lactam N-9)	850	
CC[C@H](C)[C@H]1C(=O)N[C@H](C(=O)N2CCCCC2)CC(=O)N[C@@H](C)C(=O)N[C@@H]([C@@H](C)O)C(=O)N(C)[C@@H](Cc2ccccc2)C(=O)N[C@@H](CC(C)C)C(=O)N2CCC[C@H]2C(=O)N(C)[C@@H](C(C)C)C(=O)N[C@@H](Cc2ccccc2)C(=O)N(C)CC(=O)N(C)[C@@H](CC(C)C)C(=O)N[C@@H](C)C(=O)N1C [DP-27] (AT[NMeF]LP[NMeV]F[Sar][NMeL]A[NMeI]D-Piperidide; lactam N-12)	31	
CC[C@H](C)[C@H]1C(=O)NCC(=O)N(C)[C@@H](CC(C)C)C(=O)N[C@@H]([C@@H](C)O)C(=O)N2CCC[C@H]2C(=O)N[C@@H](Cc2ccccc2)C(=O)N[C@H](C(=O)N2CCCCC2)CC(=O)N(C)[C@@H](C)C(=O)N[C@@H](Cc2ccccc2)C(=O)N2CC[C@H]2C(=O)N[C@@H](CC(C)C)C(=O)N1C [DP-552] ([NMeA]F[Aze]L[NMeI]G[NMeL]TPFD-Piperidide; lactam N-11)	157	
